Experimental data as given in patent publication US12215354B2, “Differentiation of human embryonic stem cells into single hormonal insulin positive cells” (Janssen Biotech, Inc., priority 2011, dated 2025).

Test system: human embryonic stem cell line H1
Experiment: Immune staining for insulin, glucagon and somatostatin hormones at end of stage 5 (Example 11)
Assay type: cell-based
Settings: percentage of the entire hormone count, 0.25 mM ascorbic acid
Method: Cells of the human embryonic stem cell line H1 at various passages (passage 40 to passage 52) were seeded as single cells at a density of 100,000 cells/cm^2 on MATRIGEL™ (1:30 dilution) coated dishes in mTesr™1 media and 10 μM of Y27632. Forty eight hours post seeding, cultures were differentiated into pancreatic endocrine lineage as follows: • a. Stage 1 (Definitive Endoderm (DE)−3 days): Prior to start of DE, the cultures were washed and incubated with incomplete PBS (no Mg or Ca) for 30 seconds followed by addition of the stage 1 media. Human embryonic stem cells cultured as single cells on MATRIGEL™-coated dishes were treated with MCDB-131 medium supplemented with 0.1% fatty acid-free BSA, 0.0012 g/ml sodium bicarbonate, 1× GLUTAMAX™, 5 mM D-Glucose, 100 ng/ml GDF8, and 1 μM MCX compound (GSK3B inhibitor) for one day. Cells were then treated with MCDB-131 medium supplemented with 0.1% fatty acid-free BSA, 0.0012 g/ml sodium bicarbonate, 1× GLUTAMAX™, 5 mM glucose, 100 ng/ml GDF8, and 100 nM MCX compound for day two, followed by an additional day in MCDB-131 medium supplemented with 0.1% fatty acid-free BSA, 0.0012 g/ml sodium bicarbonate, 1× GLUTAMAX™, 5 mM Glucose, and 100 ng/ml GDF8. • b. Stage 2 (Primitive gut tube−2 days): Stage 1 cells were treated with MCDB-131 medium supplemented with 0.1% fatty acid-free BSA, 0.0012 g/ml sodium bicarbonate, 1× GLUTAMAX™, 5 mM D-Glucose, and 25 ng/ml FGF7 for two days. • c. Stage 3 (Foregut−2 days): Stage 2 cells were treated with MCDB-131 medium supplemented with 1:200 dilution of ITS-X, 2.5 mM Glucose, 1× GLUTAMAX™, 0.0015 g/ml sodium bicarbonate, 2% fatty acid-free BSA, 10 ng/ml Activin A, 25 ng/ml FGF7, 0.25 μM SANT-1, 1 μM RA, 200 nM TPB (PKC activator), 100 nM LDN-193189 (BMP receptor inhibitor) for one day. Cells were then treated with MCDB-131 medium supplemented with 1:200 dilution of ITS-X, 2.5 mM Glucose, 1× GLUTAMAX™, 0.0015 g/ml sodium bicarbonate, 2% fatty acid-free BSA, 10 ng/ml Activin A, 25 ng/ml FGF7, 0.25 μM SANT-1, 1 μM RA, 200 nM TPB (PKC activator), 10 nM LDN-193189 for an additional day. […]

O=C1O[C@H]([C@@H](O)CO)C(O)=C1O [ascorbic acid]
% Polyhormonal: 36% | % glucagon + plus % somatostatin+: 44% | % single hormonal Insulin+: 55%
